# From patent EP0240392A1, “Compounds of the cyclophosphazene type, process for their preparation and pharmaceutical preparation containing them” (CENTRE NATIONAL DE LA RECHERCHE SCIENTIFIQUE (CNRS), priority 1986, dated 1987)
# Marks after values point to notes of the source that are not given here.
# How the values were obtained:
# LEUCEMIE P388 = experiment: Antitumour activity on P388 leukemia implanted i.p. in mice; format: in vivo, souris CD2F1
# Text: (§1) Les tests d'activité antitumorale ont été conduits au sein du Screening and Pharmacology Group de l'E.O.R.T.C., implanté à l'Institut Mario Negri de Milan.
# (§2) Ces essais ont été conduits soit en mono-injection à différentes doses au jour J+1 suivant la greffe de la tumeur, soit en poly-injections chroniques Q1D, soit en protocoles Q4D.
# (§3) L'activité antitumorale est mesurée par le rapport T/C %, T (en jours) étant le durée moyenne de vie des souris traitées, C (en jours) étant la durée moyenne de vie des souris témoins.
# (§4) L'effet thérapeutique est considéré comme significatif quant T/C % est supérieur ou égal à 125.
# [1] = tested on: CARCINOME MAMMAIRE LIGNEE 16; experiment: Antitumour activity on mammary carcinoma line 16 implanted i.m. in mice; format: in vivo, souris 3CH
# Text: as §1, §2, §3, §4
# MELANOME B16 = experiment: Antitumour activity on B16 melanoma implanted i.m. in mice; format: in vivo, souris C57B1/6
# Text: as §1, §2, §3, §4
# [2] = tested on: CARCINOME DU POUMON DE LEWIS; experiment: Antitumour activity on Lewis lung carcinoma implanted i.m. in mice; format: in vivo, souris C57Bl/6
# Text: as §1, §2
# [3] = 200 mg/kg i.p. j 1,5,9, jour 26
# [4] = 300 mg/kg i.p. j 1,5,9, jour 26
# [5] = 200 mg/kg i.p. j 1,5,9, jour 27
# [6] = 300 mg/kg i.p. j 1,5,9, jour 27
# [7] = 200 mg/kg i.p. x j 1,5,9, sacrifice jour 25
structure (smiles),measurement,setting,value
C(CCN1CCCNP12=NP(N1CC1)(N1CC1)=NP(N1CC1)(N1CC1)=N2)CN1CCCNP12=NP(N1CC1)(N1CC1)=NP(N1CC1)(N1CC1)=N2 (centres unmarked) [SPM],T/C (%),"LEUCEMIE P388; Tableau 2, inoculation i.p., 100 mg/kg i.p. x 9 (j 1 à 9)",245%
same,T/C (%),"LEUCEMIE P388; Tableau 2, inoculation i.p., 150 mg/kg i.p. x 9 (j 1 à 9)",135%
same,T/C (%),"LEUCEMIE P388; Tableau 2, inoculation i.p., 200 mg/kg i.p. x 9 (j 1 à 9)",110%
same,T/C (%),"LEUCEMIE P388; Tableau 9, 25 mg/kg i.p. x j 1-9",166%
same,T/C (%),"LEUCEMIE P388; Tableau 9, 50 mg/kg i.p. x j 1,5,9",161%
same,T/C (%),"LEUCEMIE P388; Tableau 9, 50 mg/kg i.p. x j 1-9",176%
same,T/C (%),"LEUCEMIE P388; Tableau 9, 100 mg/kg i.p. x j 1",152%
same,T/C (%),"LEUCEMIE P388; Tableau 9, 100 mg/kg i.p. x j 1,5,9",190%
same,T/C (%),"LEUCEMIE P388; Tableau 9, 100 mg/kg i.p. x j 1-9 (9Q1D)",260%
same,T/C (%),"LEUCEMIE P388; Tableau 9, 150 mg/kg i.p. x j 1,5,9",219%
same,T/C (%),"LEUCEMIE P388; Tableau 9, 150 mg/kg i.p. x j 1-9",195%
same,T/C (%),"LEUCEMIE P388; Tableau 9, 200 mg/kg i.p. x j 1",166%
same,T/C (%),"LEUCEMIE P388; Tableau 9, 250 mg/kg i.p. x j 1,5,9 (Q4D)",285%
same,T/C (%),"LEUCEMIE P388; Tableau 9, 300 mg/kg i.p. x j 1",166%
same,T/C (%),"LEUCEMIE P388; Tableau 9, 400 mg/kg i.p. x j 1",200%
same,toxicity of the regimen (result in words),[1]; 100 mg/kg i.p. j 1-9,TOXIQUE
same,T/C (%),"[1]; 200 mg/kg i.p. j 1,5,9",105%
same,Volume moyen de la tumeur (cm^3 ± S.E.),"[1]; 200 mg/kg i.p. j 1,5,9, jour 15","0,37±0,05* cm^3"
same,Volume moyen de la tumeur (cm^3 ± S.E.),"[1]; 200 mg/kg i.p. j 1,5,9, jour 19","1,70±0,24* cm^3"
same,Volume moyen de la tumeur (cm^3 ± S.E.),"[1]; 200 mg/kg i.p. j 1,5,9, jour 22","2,43±0,31* cm^3"
same,Volume moyen de la tumeur (cm^3 ± S.E.),[1]; [3],"3,71±0,46 cm^3"
same,nombre d'animaux vivants/total,[1]; [3],9/10
same,toxicity of the regimen (result in words),[1]; 200 mg/kg i.p. j 1-9,TOXIQUE
same,T/C (%),"[1]; 300 mg/kg i.p. j 1,5,9",94%
same,Volume moyen de la tumeur (cm^3 ± S.E.),"[1]; 300 mg/kg i.p. j 1,5,9, jour 19","0,24±0,14* cm^3"
same,Volume moyen de la tumeur (cm^3 ± S.E.),"[1]; 300 mg/kg i.p. j 1,5,9, jour 22","0,45±0,28* cm^3"
same,Volume moyen de la tumeur (cm^3 ± S.E.),[1]; [4],"2,24±0,31 cm^3"
same,nombre d'animaux vivants/total,[1]; [4],3/10
same,T/C (%),MELANOME B16; 100 mg/kg i.p. j 1-9,103%
same,Volume moyen de la tumeur (cm^3 ± S.E.),"MELANOME B16; 100 mg/kg i.p. j 1-9, jour 17","1,01±0,15 cm^3"
same,Volume moyen de la tumeur (cm^3 ± S.E.),"MELANOME B16; 100 mg/kg i.p. j 1-9, jour 20","1,71±0,13* cm^3"
same,Volume moyen de la tumeur (cm^3 ± S.E.),"MELANOME B16; 100 mg/kg i.p. j 1-9, jour 24","3,39±0,34* cm^3"
same,Volume moyen de la tumeur (cm^3 ± S.E.),"MELANOME B16; 100 mg/kg i.p. j 1-9, jour 27","3,75±0,29 cm^3"
same,nombre de souris vivantes/total,"MELANOME B16; 100 mg/kg i.p. j 1-9, jour 27",9/10
same,T/C (%),"MELANOME B16; 200 mg/kg i.p. j 1,5,9",120%
same,Volume moyen de la tumeur (cm^3 ± S.E.),"MELANOME B16; 200 mg/kg i.p. j 1,5,9, jour 13","0,52±0,08* cm^3"
same,Volume moyen de la tumeur (cm^3 ± S.E.),"MELANOME B16; 200 mg/kg i.p. j 1,5,9, jour 17","1,17±0,14* cm^3"
same,Volume moyen de la tumeur (cm^3 ± S.E.),"MELANOME B16; 200 mg/kg i.p. j 1,5,9, jour 20","1,66±0,15* cm^3"
same,Volume moyen de la tumeur (cm^3 ± S.E.),"MELANOME B16; 200 mg/kg i.p. j 1,5,9, jour 24","3,72±0,29* cm^3"
same,Volume moyen de la tumeur (cm^3 ± S.E.),MELANOME B16; [5],"4,98±0,56 cm^3"
same,nombre de souris vivantes/total,MELANOME B16; [5],8/10
same,T/C (%),MELANOME B16; 200 mg/kg i.p. j 1-9,138%
same,Volume moyen de la tumeur (cm^3 ± S.E.),"MELANOME B16; 200 mg/kg i.p. j 1-9, jour 20","0,12±0,08* cm^3"
same,Volume moyen de la tumeur (cm^3 ± S.E.),"MELANOME B16; 200 mg/kg i.p. j 1-9, jour 24","1,22±0,17* cm^3"
same,Volume moyen de la tumeur (cm^3 ± S.E.),"MELANOME B16; 200 mg/kg i.p. j 1-9, jour 27","2,06±0,23 cm^3"
same,nombre de souris vivantes/total,"MELANOME B16; 200 mg/kg i.p. j 1-9, jour 27",9/9
same,T/C (%),"MELANOME B16; 300 mg/kg i.p. j 1,5,9",104%
same,Volume moyen de la tumeur (cm^3 ± S.E.),"MELANOME B16; 300 mg/kg i.p. j 1,5,9, jour 13","0,44±0,06* cm^3"
same,Volume moyen de la tumeur (cm^3 ± S.E.),"MELANOME B16; 300 mg/kg i.p. j 1,5,9, jour 17","1,72±0,12* cm^3"
same,Volume moyen de la tumeur (cm^3 ± S.E.),"MELANOME B16; 300 mg/kg i.p. j 1,5,9, jour 20","2,67±0,24* cm^3"
same,Volume moyen de la tumeur (cm^3 ± S.E.),"MELANOME B16; 300 mg/kg i.p. j 1,5,9, jour 24","5,36±0,42* cm^3"
same,Volume moyen de la tumeur (cm^3 ± S.E.),MELANOME B16; [6],"5,96±0,22 cm^3"
same,nombre de souris vivantes/total,MELANOME B16; [6],6/10
same,Volume de la tumeur (d^2.D/2)cm^3 ± S.E.,"[2]; 200 mg/kg i.p. x j 1,5,9, jour 10","0,53±0,08 cm^3"
same,Volume de la tumeur (d^2.D/2)cm^3 ± S.E.,"[2]; 200 mg/kg i.p. x j 1,5,9, jour 13","1,64±0,18 cm^3"
same,Volume de la tumeur (d^2.D/2)cm^3 ± S.E.,"[2]; 200 mg/kg i.p. x j 1,5,9, jour 17","3,49±0,15* cm^3"
same,Volume de la tumeur (d^2.D/2)cm^3 ± S.E.,"[2]; 200 mg/kg i.p. x j 1,5,9, jour 20","4,35±0,26* cm^3"
same,Volume de la tumeur (d^2.D/2)cm^3 ± S.E.,"[2]; 200 mg/kg i.p. x j 1,5,9, jour 24","6,08±0,31* cm^3"
same,Métastases Nombre moyen (N ± S.E.),[2]; [7],"14 ± 3,4"
same,Métastases Poids moyen (mg ± S.E.),[2]; [7],"127,3 ± 43,1 mg"
same,Poids moyen de la tumeur (g ± S.E.),[2]; [7],"7,40 ± 0,33 g"
same,activité sur le carcinome du poumon de Lewis (result in words),[2]; souris C57B1/6,intéressante activité
